In PubChem BioAssay AID2060888 (Molecular Pharmacology Branch, DTP, NCI, 2025):

Tested on: 695427-040-R-J1-PDC complex spheroid viability
Test: Anticancer human tumor 695427-040-R-J1-PDC patient-derived colon adenocarcinoma cell line growth inhibition [RAS]
Settings: for IC50: curve of first compound; for viability, T/C: stronger effect = lower value
Description: RAS pathway inhibitors in Combinations in Complex Spheroids
A high-throughput screen of multi-cell type tumor spheroids was designed to identify active combinations of RAS pathway inhibitors and targeted small molecules. Complex spheroids include a stromal component modeled by human endothelial cells (HUVEC) and fibroblasts modeled by human mesenchymal stem cells (MSCs). The concentration ranges selected for each drug and investigational agent were based upon clinically achievable concentrations if the clinical Cmax of the agent was known.
Compounds. The drugs and investigational agents: abemaciclib (NSC768073), cobimetinib (NSC768068), divarasib (GDC6063, NSC841802), docetaxel (NSC628503), GDC-1971 (RLY-1971, NSC841576), gemcitabine (NSC613327), inavolisib (NSC800729), ipatasertib (NSC767898), KB-0742 (NSC834161), MRTX-1133 (NSC836407), osimertinib (NSC779217), RMC-4630 (NSC839698), RMC-6236 (NSC851965), RMC-6291 (NSC852671), Ro-3306 (NSC812927), sapanisertib (NSC764658), SN-38 (NSC673596), staurosporine (NSC755774), SY5609 (NSC837396), and tovorafenib (DAY101, NSC766906), were obtained from the National Cancer Institute (NCI) Developmental Therapeutics Program Chemical Repository. The FDA-approved anticancer drug set is available from the NCI Developmental Therapeutics Program. […] The stock solutions were prepared in dimethyl sulfoxide (DMSO, Sigma-Aldrich, St. Louis, MO, cat. D2650) at 800-fold the tested concentration and stored at -70 degrees C prior to their use. All drugs and investigational agents were tested over a range starting from a high concentration at or near the clinical Cmax and decreasing in half-log increments. If the clinical Cmax for an agent had not been determined, the highest concentration tested was 10 microM.
Cell Culture. All cells were maintained in an incubator at 37 degrees C and 5% CO2 with 95% humidity. The PDC lines were cultured according to standard operating procedures established by the NCI PDMR. All PDCs were thawed and cultured in Matrigel-coated flasks prepared with a working solution of 1X Ham's F-12 nutrient mix, without supplementation (Invitrogen, Waltham, MA, cat. 11765054), 100 U/mL penicillin-streptomycin (Invitrogen, cat. 15140122), and 2.5% Matrigel (Corning Inc., Corning, NY, cat. 354248) for the first three passages. The 362531-283-R-J2-PDC and 782815-120-R-J1-PDC lines were cultured in 6C/Colon 1B media, which includes advanced DMEM/F-12 (Thermo Fisher Scientific, cat. 12634028), 10 mM HEPES (Thermo Fisher Scientific, cat. 15630080), 1X GlutaMAX supplement (Thermo Fisher Scientific, cat. 35050061), 0.1 mg/mL primocin (InvivoGen, San Diego, CA, cat. ant-pm-2), 10% defined fetal bovine serum, heat inactivated (HyClone Laboratories Inc., Logan, UT, cat. SH30070.03HI), 50% L-WRN conditioned media (ATCC, cat. CRL-3276), 1.25 mM N-Acetyl-L-cysteine (Sigma-Aldrich, cat. A9165), 10 mM nicotinamide (Sigma-Aldrich, cat. N0636), 1X B-27 supplement (Thermo Fisher Scientific, cat. 17504044), 1X N-2 supplement (Thermo Fisher Scientific, cat. 17502048), 50 ng/mL human EGF (Thermo Fisher Scientific, cat. PHG0311), and 10 microM Y-27632 dihydrochloride (Tocris Bioscience, cat. 1254). The K12877-001-R-J1-PDC line was cultured in 6I media, which includes all 6C/Colon 1B media plus 10 ng/mL human FGF-10 (PeproTech, cat. 100-26), 1 ng/mL human FGF-2 (PeproTech, cat. 100-18B), 1 µM prostaglandin E2 (Tocris Bioscience, cat. 2296), […] hydrocortisone (Sigma-Aldrich, cat. H4001), and […] bovine insulin (Sigma-Aldrich, cat. I6634). The K86415-001-R-J1-PDC line was cultured in 6D media, which includes all 6C/Colon 1B media components minus the L-WRN conditioned media. The 485176-168-R4-J1-PDC was cultured in PANC media, which includes all 6C/Colon 1B media plus 100 ng/mL human FGF-10 (PeproTech, cat. 100-26), 500 nM SB-431542 (Selleckchem, cat. S1067), and 10 nM gastrin (Tocris Bioscience, cat. 3006). […]
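Further: viability read after seven days of drug exposure.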
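Wherever viability, T/C is given: 100% = DMSO vehicle control viability.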

## NC1c2ccccc2OC12CCN(c1cnc3c(N4CCCc5ncccc54)n[nH]c3n1)CC2 (centres undefined) + CCn1c(-c2cc(N3CCN(C)CC3)cnc2C(C)OC)c2c3cc(ccc31)-c1csc(n1)CC(NC(=O)C1CC1C)C(=O)N1CCCC(N1)C(=O)OCC(C)(C)C2
Second compound 0.000949 µM
  IC50: 0.375 µM
Second compound 0.003 µM
  IC50: 0.209 µM
Second compound 0.00949 µM
  IC50: 0.072 µM
Second compound 0.03 µM
  IC50: < 0.0316 µM
Second compound 0.0949 µM
  IC50: < 0.0316 µM
Second compound 0.3 µM
  IC50: < 0.0316 µM
Second compound 0.000949 µM, first compound 0.0316 µM
  viability, T/C: 74.8%
Second compound 0.000949 µM, first compound 0.1 µM
  viability, T/C: 70.1%
Second compound 0.000949 µM, first compound 0.316 µM
  viability, T/C: 53.9%
Second compound 0.000949 µM, first compound 1 µM
  viability, T/C: 29.2%
Second compound 0.000949 µM, first compound 3.16 µM
  viability, T/C: 32.4%
Second compound 0.000949 µM, first compound 10 µM
  viability, T/C: 24.9%
Second compound 0.003 µM, first compound 0.0316 µM
  viability, T/C: 73.9%
Second compound 0.003 µM, first compound 0.1 µM
  viability, T/C: 59.2%
Second compound 0.003 µM, first compound 0.316 µM
  viability, T/C: 47%
Second compound 0.003 µM, first compound 1 µM
  viability, T/C: 24.4%
Second compound 0.003 µM, first compound 3.16 µM
  viability, T/C: 23.5%
Second compound 0.003 µM, first compound 10 µM
  viability, T/C: 20.5%
Second compound 0.00949 µM, first compound 0.0316 µM
  viability, T/C: 62.2%
Second compound 0.00949 µM, first compound 0.1 µM
  viability, T/C: 45.3%
Second compound 0.00949 µM, first compound 0.316 µM
  viability, T/C: 22.5%
Second compound 0.00949 µM, first compound 1 µM
  viability, T/C: 25.1%
Second compound 0.00949 µM, first compound 3.16 µM
  viability, T/C: 18.2%
Second compound 0.00949 µM, first compound 10 µM
  viability, T/C: 15.8%
Second compound 0.03 µM, first compound 0.0316 µM
  viability, T/C: 45.4%
Second compound 0.03 µM, first compound 0.1 µM
  viability, T/C: 36%
Second compound 0.03 µM, first compound 0.316 µM
  viability, T/C: 27.9%
Second compound 0.03 µM, first compound 1 µM
  viability, T/C: 21.1%
Second compound 0.03 µM, first compound 3.16 µM
  viability, T/C: 13.2%
Second compound 0.03 µM, first compound 10 µM
  viability, T/C: 16.8%
Second compound 0.0949 µM, first compound 0.0316 µM
  viability, T/C: 39.2%
Second compound 0.0949 µM, first compound 0.1 µM
  viability, T/C: 27.3%
Second compound 0.0949 µM, first compound 0.316 µM
  viability, T/C: 22.3%
Second compound 0.0949 µM, first compound 1 µM
  viability, T/C: 15.2%
Second compound 0.0949 µM, first compound 3.16 µM
  viability, T/C: 14.1%
Second compound 0.0949 µM, first compound 10 µM
  viability, T/C: 13.1%
Second compound 0.3 µM, first compound 0.0316 µM
  viability, T/C: 27.5%
Second compound 0.3 µM, first compound 0.1 µM
  viability, T/C: 27%
Second compound 0.3 µM, first compound 0.316 µM
  viability, T/C: 20.7%
Second compound 0.3 µM, first compound 1 µM
  viability, T/C: 14.5%
Second compound 0.3 µM, first compound 3.16 µM
  viability, T/C: 10.2%
Second compound 0.3 µM, first compound 10 µM
  viability, T/C: 15.5%

## CC(Nc1ccc2c(c1)OCCn1cc(N3C(=O)OCC3C(F)F)nc1-2)C(N)=O (centres undefined) + C#Cc1c(F)ccc2cc(O)cc(-c3ncc4c(N5CC6CCC(C5)N6)nc(OCC56CCCN5CC(F)C6)nc4c3F)c12
Second compound 0.0316 µM
  IC50: 1.55 µM
Second compound 0.1 µM
  IC50: 0.933 µM
Second compound 0.316 µM
  IC50: 0.422 µM
Second compound 1 µM
  IC50: 0.168 µM
Second compound 3.16 µM
  IC50: < 0.0316 µM
Second compound 10 µM
  IC50: < 0.0316 µM
Second compound 0.0316 µM, first compound 0.0316 µM
  viability, T/C: 78.2%
Second compound 0.0316 µM, first compound 0.1 µM
  viability, T/C: 69.5%
Second compound 0.0316 µM, first compound 0.316 µM
  viability, T/C: 58.5%
Second compound 0.0316 µM, first compound 1 µM
  viability, T/C: 52.1%
Second compound 0.0316 µM, first compound 3.16 µM
  viability, T/C: 47.9%
Second compound 0.0316 µM, first compound 10 µM
  viability, T/C: 40.1%
Second compound 0.1 µM, first compound 0.0316 µM
  viability, T/C: 77%
Second compound 0.1 µM, first compound 0.1 µM
  viability, T/C: 69.7%
Second compound 0.1 µM, first compound 0.316 µM
  viability, T/C: 59.6%
Second compound 0.1 µM, first compound 1 µM
  viability, T/C: 49.9%
Second compound 0.1 µM, first compound 3.16 µM
  viability, T/C: 40.4%
Second compound 0.1 µM, first compound 10 µM
  viability, T/C: 35.4%
Second compound 0.316 µM, first compound 0.0316 µM
  viability, T/C: 76.7%
Second compound 0.316 µM, first compound 0.1 µM
  viability, T/C: 67.1%
Second compound 0.316 µM, first compound 0.316 µM
  viability, T/C: 52%
Second compound 0.316 µM, first compound 1 µM
  viability, T/C: 39.9%
Second compound 0.316 µM, first compound 3.16 µM
  viability, T/C: 40.5%
Second compound 0.316 µM, first compound 10 µM
  viability, T/C: 30.3%
Second compound 1 µM, first compound 0.0316 µM
  viability, T/C: 63.1%
Second compound 1 µM, first compound 0.1 µM
  viability, T/C: 54%
Second compound 1 µM, first compound 0.316 µM
  viability, T/C: 45.9%
Second compound 1 µM, first compound 1 µM
  viability, T/C: 34.8%
Second compound 1 µM, first compound 3.16 µM
  viability, T/C: 31.9%
Second compound 1 µM, first compound 10 µM
  viability, T/C: 23.1%
Second compound 3.16 µM, first compound 0.0316 µM
  viability, T/C: 47.4%
Second compound 3.16 µM, first compound 0.1 µM
  viability, T/C: 38.3%
Second compound 3.16 µM, first compound 0.316 µM
  viability, T/C: 30.3%
Second compound 3.16 µM, first compound 1 µM
  viability, T/C: 23.9%
Second compound 3.16 µM, first compound 3.16 µM
  viability, T/C: 22%
Second compound 3.16 µM, first compound 10 µM
  viability, T/C: 16.9%
Second compound 10 µM, first compound 0.0316 µM
  viability, T/C: 33.8%
Second compound 10 µM, first compound 0.1 µM
  viability, T/C: 22.1%
Second compound 10 µM, first compound 0.316 µM
  viability, T/C: 17.1%
Second compound 10 µM, first compound 1 µM
  viability, T/C: 13.6%
Second compound 10 µM, first compound 3.16 µM
  viability, T/C: 12%
Second compound 10 µM, first compound 10 µM
  viability, T/C: 10.9%
